{
  "source": "patent US20260262643A1",
  "about": "“HERBICIDAL BENZOXAZINES” (FMC CORPORATION, priority 2022, published 2026)",
  "key": {"foxtail, giant [1]": {"tested_on": "foxtail, giant", "test": "Test C preemergence", "format": "in vivo, Setaria faberi", "procedure,_shortened": "(§1)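 Pre: seeds in loam/sand, directed soil spray. Post: 1–2 leaf plants, 2–10 cm. Cmpd in non-phytotoxic solvent + surfactant. Greenhouse 10 d; visual rating vs untreated, 0 = none, 100 = complete control.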"}, "horseweed": {"tested_on": "horseweed", "test": "Test C postemergence", "format": "in vivo, Erigeron canadensis", "settings": "10 days, 0 to 100 scale (0 no effect, 100 complete control)", "procedure,_shortened": "as §1"}, "ragweed [2]": {"tested_on": "ragweed", "test": "Test C preemergence", "format": "in vivo, Ambrosia artemisiifolia", "procedure,_shortened": "as §1"}, "soybean [3]": {"tested_on": "soybean", "test": "Test C postemergence", "format": "in vivo, Glycine max", "settings": "10 days, 0 to 100 scale (0 no effect, 100 complete control)", "procedure,_shortened": "as §1"}, "wheat [4]": {"tested_on": "wheat", "test": "Test C postemergence", "format": "in vivo, Triticum aestivum", "settings": "10 days, 0 to 100 scale (0 no effect, 100 complete control)", "procedure,_shortened": "as §1"}, "barnyardgrass [5]": {"tested_on": "barnyardgrass", "test": "Test C preemergence", "format": "in vivo, Echinochloa crusgalli", "procedure,_shortened": "as §1"}, "pigweed, palmer [6]": {"tested_on": "pigweed, palmer", "test": "Test C postemergence", "format": "in vivo, Amaranthus palmeri", "settings": "10 days, 0 to 100 scale (0 no effect, 100 complete control)", "procedure,_shortened": "as §1"}, "corn [7]": {"tested_on": "corn", "test": "Test C preemergence", "format": "in vivo, Zea mays", "procedure,_shortened": "as §1"}, "foxtail, giant [8]": {"tested_on": "foxtail, giant", "test": "Test C postemergence", "format": "in vivo, Setaria faberi", "settings": "10 days, 0 to 100 scale (0 no effect, 100 complete control)", "procedure,_shortened": "as §1"}, "corn [9]": {"tested_on": "corn", "test": "Test C postemergence", "format": "in vivo, Zea mays", "settings": "10 days, 0 to 100 scale (0 no effect, 100 complete control)", "procedure,_shortened": "as §1"}, "galium": {"tested_on": "galium", "test": "Test C postemergence", "format": "in vivo, Galium aparine", "settings": "10 days, 0 to 100 scale (0 no effect, 100 complete control)", "procedure,_shortened": "as §1"}, "ragweed [10]": {"tested_on": "ragweed", "test": "Test C postemergence", "format": "in vivo, Ambrosia artemisiifolia", "settings": "10 days, 0 to 100 scale (0 no effect, 100 complete control)", "procedure,_shortened": "as §1"}, "kochia [11]": {"tested_on": "kochia", "test": "Test C preemergence", "format": "in vivo, Bassia scoparia", "procedure,_shortened": "as §1"}, "barnyardgrass [12]": {"tested_on": "barnyardgrass", "test": "Test D flooded paddy test", "format": "in vivo, Echinochloa crus-galli", "settings": "250 g ai/ha, applied to paddy water, visual rating after 13 to 14 days, scale 0 to 100 (0 no effect, 100 complete control)", "procedure,_shortened": "(§2)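 Seedlings reached the 2-leaf stage, then pots were flooded to 3 cm over the soil surface. Compound was applied into the water, depth was maintained, and plants stayed in the greenhouse 13 to 14 days before visual scoring (0–100) relative to controls.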"}, "ducksalad": {"tested_on": "ducksalad", "test": "Test D flooded paddy test", "format": "in vivo, Heteranthera limosa", "settings": "250 g ai/ha, applied to paddy water, visual rating after 13 to 14 days, scale 0 to 100 (0 no effect, 100 complete control)", "procedure,_shortened": "as §2"}, "soybean [13]": {"tested_on": "soybean", "test": "Test C preemergence", "format": "in vivo, Glycine max", "procedure,_shortened": "as §1"}, "ryegrass, Italian [14]": {"tested_on": "ryegrass, Italian", "test": "Test C preemergence", "format": "in vivo, Lolium multiflorum", "procedure,_shortened": "as §1"}, "sedge, umbrella": {"tested_on": "sedge, umbrella", "test": "Test D flooded paddy test", "format": "in vivo, Cyperus difformis", "settings": "250 g ai/ha, applied to paddy water, visual rating after 13 to 14 days, scale 0 to 100 (0 no effect, 100 complete control)", "procedure,_shortened": "as §2"}, "oat, wild [15]": {"tested_on": "oat, wild", "test": "Test C postemergence", "format": "in vivo, Avena fatua", "settings": "10 days, 0 to 100 scale (0 no effect, 100 complete control)", "procedure,_shortened": "as §1"}, "blackgrass [16]": {"tested_on": "blackgrass", "test": "Test C postemergence", "format": "in vivo, Alopecurus myosuroides", "settings": "10 days, 0 to 100 scale (0 no effect, 100 complete control)", "procedure,_shortened": "as §1"}, "ryegrass, Italian [17]": {"tested_on": "ryegrass, Italian", "test": "Test C postemergence", "format": "in vivo, Lolium multiflorum", "settings": "10 days, 0 to 100 scale (0 no effect, 100 complete control)", "procedure,_shortened": "as §1"}, "pigweed, palmer [18]": {"tested_on": "pigweed, palmer", "test": "Test C preemergence", "format": "in vivo, Amaranthus palmeri", "procedure,_shortened": "as §1"}, "kochia [19]": {"tested_on": "kochia", "test": "Test C postemergence", "format": "in vivo, Bassia scoparia", "settings": "10 days, 0 to 100 scale (0 no effect, 100 complete control)", "procedure,_shortened": "as §1"}, "blackgrass [20]": {"tested_on": "blackgrass", "test": "Test C preemergence", "format": "in vivo, Alopecurus myosuroides", "procedure,_shortened": "as §1"}, "oat, wild [21]": {"tested_on": "oat, wild", "test": "Test C preemergence", "format": "in vivo, Avena fatua", "procedure,_shortened": "as §1"}, "rice": {"tested_on": "rice", "test": "Test D flooded paddy test", "format": "in vivo, Oryza sativa", "settings": "250 g ai/ha, applied to paddy water, visual rating after 13 to 14 days, scale 0 to 100 (0 no effect, 100 complete control)", "procedure,_shortened": "as §2"}, "wheat [22]": {"tested_on": "wheat", "test": "Test C preemergence", "format": "in vivo, Triticum aestivum", "procedure,_shortened": "as §1"}, "barnyardgrass [23]": {"tested_on": "barnyardgrass", "test": "Test C postemergence", "format": "in vivo, Echinochloa crusgalli", "settings": "10 days, 0 to 100 scale (0 no effect, 100 complete control)", "procedure,_shortened": "as §1"}, "[24]": {"settings": "500 g ai/ha, preemergence, 0 to 100 scale (0 no effect, 100 complete control)"}, "[25]": {"settings": "Preemergence, 125 g ai/ha, 0 to 100 scale, 0 no effect, 100 complete control"}},
  "data": [
    {"molecule": "CC(C)c1ncn(-c2cc(C(=O)N3CC(C(F)(F)F)Oc4c(Cl)cccc43)ccn2)n1", "note": "(single isomer, unassigned) [Compound 330]", "values": [
      {"measurement": "Foxtail, Giant plant response rating", "setting": "foxtail, giant [1]; [24]", "value": 100},
      {"measurement": "Plant response rating, Foxtail, Giant", "setting": "foxtail, giant [1]; [25]", "value": 100},
      {"measurement": "Plant response rating, Horseweed", "setting": "horseweed; 500 g ai/ha, postemergence", "value": 20},
      {"measurement": "Plant response rating, Horseweed", "setting": "horseweed; Postemergence, 125 g ai/ha", "value": 0},
      {"measurement": "Ragweed plant response rating", "setting": "ragweed [2]; [24]", "value": 50},
      {"measurement": "Plant response rating, Ragweed", "setting": "ragweed [2]; [25]", "value": 0},
      {"measurement": "Plant response rating, Soybean", "setting": "soybean [3]; 500 g ai/ha, postemergence", "value": 100},
      {"measurement": "Plant response rating, Soybean", "setting": "soybean [3]; Postemergence, 125 g ai/ha", "value": 100},
      {"measurement": "Plant response rating, Wheat", "setting": "wheat [4]; 500 g ai/ha, postemergence", "value": 30},
      {"measurement": "Plant response rating, Wheat", "setting": "wheat [4]; Postemergence, 125 g ai/ha", "value": 20},
      {"measurement": "Barnyardgrass plant response rating", "setting": "barnyardgrass [5]; [24]", "value": 100},
      {"measurement": "Plant response rating, Barnyardgrass", "setting": "barnyardgrass [5]; [25]", "value": 70},
      {"measurement": "Plant response rating, Pigweed, Palmer", "setting": "pigweed, palmer [6]; 500 g ai/ha, postemergence", "value": 100},
      {"measurement": "Plant response rating, Pigweed, Palmer", "setting": "pigweed, palmer [6]; Postemergence, 125 g ai/ha", "value": 70},
      {"measurement": "Corn plant response rating", "setting": "corn [7]; [24]", "value": 60},
      {"measurement": "Plant response rating, Corn", "setting": "corn [7]; [25]", "value": 10},
      {"measurement": "Plant response rating, Foxtail, Giant", "setting": "foxtail, giant [8]; 500 g ai/ha, postemergence", "value": 90},
      {"measurement": "Plant response rating, Foxtail, Giant", "setting": "foxtail, giant [8]; Postemergence, 125 g ai/ha", "value": 50},
      {"measurement": "Plant response rating, Corn", "setting": "corn [9]; 500 g ai/ha, postemergence", "value": 90},
      {"measurement": "Plant response rating, Corn", "setting": "corn [9]; Postemergence, 125 g ai/ha", "value": 70},
      {"measurement": "Plant response rating, Galium", "setting": "galium; 500 g ai/ha, postemergence", "value": 100},
      {"measurement": "Plant response rating, Galium", "setting": "galium; Postemergence, 125 g ai/ha", "value": 100},
      {"measurement": "Plant response rating, Ragweed", "setting": "ragweed [10]; 500 g ai/ha, postemergence", "value": 40},
      {"measurement": "Plant response rating, Ragweed", "setting": "ragweed [10]; Postemergence, 125 g ai/ha", "value": 30},
      {"measurement": "Kochia plant response rating", "setting": "kochia [11]; [24]", "value": 90},
      {"measurement": "Plant response rating, Kochia", "setting": "kochia [11]; [25]", "value": 30},
      {"measurement": "Plant response rating, Barnyardgrass (Flood)", "setting": "barnyardgrass [12]", "value": 0},
      {"measurement": "Plant response rating, Ducksalad (Flood)", "setting": "ducksalad", "value": 0},
      {"measurement": "Soybean plant response rating", "setting": "soybean [13]; [24]", "value": 80},
      {"measurement": "Plant response rating, Soybean", "setting": "soybean [13]; [25]", "value": 40},
      {"measurement": "Ryegrass, Italian plant response rating", "setting": "ryegrass, Italian [14]; [24]", "value": 100},
      {"measurement": "Plant response rating, Ryegrass, Italian", "setting": "ryegrass, Italian [14]; [25]", "value": 100},
      {"measurement": "Plant response rating, Sedge, Umbrella (Flood)", "setting": "sedge, umbrella", "value": 0},
      {"measurement": "Plant response rating, Oat, Wild", "setting": "oat, wild [15]; 500 g ai/ha, postemergence", "value": 70},
      {"measurement": "Plant response rating, Oat, Wild", "setting": "oat, wild [15]; Postemergence, 125 g ai/ha", "value": 30},
      {"measurement": "Plant response rating, Blackgrass", "setting": "blackgrass [16]; 500 g ai/ha, postemergence", "value": 90},
      {"measurement": "Plant response rating, Blackgrass", "setting": "blackgrass [16]; Postemergence, 125 g ai/ha", "value": 40},
      {"measurement": "Plant response rating, Ryegrass, Italian", "setting": "ryegrass, Italian [17]; 500 g ai/ha, postemergence", "value": 90},
      {"measurement": "Plant response rating, Ryegrass, Italian", "setting": "ryegrass, Italian [17]; Postemergence, 125 g ai/ha", "value": 40},
      {"measurement": "Pigweed, Palmer plant response rating", "setting": "pigweed, palmer [18]; [24]", "value": 100},
      {"measurement": "Plant response rating, Pigweed, Palmer", "setting": "pigweed, palmer [18]; [25]", "value": 100},
      {"measurement": "Plant response rating, Kochia", "setting": "kochia [19]; 500 g ai/ha, postemergence", "value": 100},
      {"measurement": "Plant response rating, Kochia", "setting": "kochia [19]; Postemergence, 125 g ai/ha", "value": 80},
      {"measurement": "Blackgrass plant response rating", "setting": "blackgrass [20]; [24]", "value": 90},
      {"measurement": "Plant response rating, Blackgrass", "setting": "blackgrass [20]; [25]", "value": 70},
      {"measurement": "Oat, Wild plant response rating", "setting": "oat, wild [21]; [24]", "value": 60},
      {"measurement": "Plant response rating, Oat, Wild", "setting": "oat, wild [21]; [25]", "value": 30},
      {"measurement": "Plant response rating, Rice (Flood)", "setting": "rice", "value": 0},
      {"measurement": "Wheat plant response rating", "setting": "wheat [22]; [24]", "value": 30},
      {"measurement": "Plant response rating, Wheat", "setting": "wheat [22]; [25]", "value": 20},
      {"measurement": "Plant response rating, Barnyardgrass", "setting": "barnyardgrass [23]; 500 g ai/ha, postemergence", "value": 70},
      {"measurement": "Plant response rating, Barnyardgrass", "setting": "barnyardgrass [23]; Postemergence, 125 g ai/ha", "value": 50}
    ]}
  ]
}
